Measured values reported in PubChem BioAssay AID1259407 (Chemical Carcinogenesis Research Information System (CCRIS), 2018).
Activity calls are given as the source filed them. How the calls were made is not given here.

Test system: CCRIS mutagenicity, Ames/micronucleus/aberration tests
Test: CCRIS mutagenicity studies
[1] = Test System: AMES SALMONELLA TYPHIMURIUM, Strain/Indicator: TA98, Metabolic Activation: NONE, Method: PREINCUBATION
[2] = Test System: AMES SALMONELLA TYPHIMURIUM, Strain/Indicator: TA100, Metabolic Activation: NONE, Method: PREINCUBATION
[3] = Test System: AMES SALMONELLA TYPHIMURIUM, Strain/Indicator: TA1535, Metabolic Activation: NONE, Method: PREINCUBATION
[4] = Test System: AMES SALMONELLA TYPHIMURIUM, Strain/Indicator: TA1537, Metabolic Activation: NONE, Method: PREINCUBATION
[5] = Test System: AMES SALMONELLA TYPHIMURIUM, Strain/Indicator: TA98, Metabolic Activation: NONE, Method: STANDARD PLATE
[6] = Test System: AMES SALMONELLA TYPHIMURIUM, Strain/Indicator: TA100, Metabolic Activation: NONE, Method: STANDARD PLATE
[7] = Test System: AMES SALMONELLA TYPHIMURIUM, Strain/Indicator: TA1537, Metabolic Activation: NONE, Method: STANDARD PLATE
[8] = Test System: AMES SALMONELLA TYPHIMURIUM, Strain/Indicator: TA98, Metabolic Activation: RAT, LIVER, S-9, AROCLOR 1254, Method: STANDARD PLATE
[9] = Test System: AMES SALMONELLA TYPHIMURIUM, Strain/Indicator: TA100, Metabolic Activation: RAT, LIVER, S-9, AROCLOR 1254, Method: STANDARD PLATE
[10] = Test System: AMES SALMONELLA TYPHIMURIUM, Strain/Indicator: TA102, Metabolic Activation: NONE, Method: STANDARD PLATE

Compound: Cc1ccc2c(c1)c(=NC(=O)c1cccc([N+](=O)[O-])c1)sn2C(=O)c1cccc([N+](=O)[O-])c1
- mutagenic call (Test System: AMES SALMONELLA TYPHIMURIUM, Strain/Indicator: TA100, Metabolic Activation: S-9, Method: STANDARD PLATE): active; positive

Compound: C=C(Br)CBr
- mutagenic call (Test System: AMES SALMONELLA TYPHIMURIUM, Strain/Indicator: TA100, Metabolic Activation: RAT, LIVER, MICROSOMES, PHENOBARBITAL, NADPH COFACTORS, Method: STANDARD PLATE): active; positive
- mutagenic call (Test System: AMES SALMONELLA TYPHIMURIUM, Strain/Indicator: TA100, Metabolic Activation: RAT, LIVER, MICROSOMES, PHENOBARBITAL, Method: STANDARD PLATE): active; positive

Compound: C(=C/c1ccccc1)/c1ccccc1
- mutagenic call (Test System: AMES SALMONELLA TYPHIMURIUM, Strain/Indicator: TA98, Metabolic Activation: HAMSTER, LIVER, S-9, AROCLOR 1254, Method: PREINCUBATION): inactive; negative
- mutagenic call [1]: inactive; negative
- mutagenic call (Test System: AMES SALMONELLA TYPHIMURIUM, Strain/Indicator: TA98, Metabolic Activation: RAT, LIVER, S-9, AROCLOR 1254, Method: PREINCUBATION): inactive; negative
- mutagenic call (Test System: AMES SALMONELLA TYPHIMURIUM, Strain/Indicator: TA100, Metabolic Activation: HAMSTER, LIVER, S-9, AROCLOR 1254, Method: PREINCUBATION): inactive; negative
- mutagenic call [2]: inactive; negative
- mutagenic call (Test System: AMES SALMONELLA TYPHIMURIUM, Strain/Indicator: TA100, Metabolic Activation: RAT, LIVER, S-9, AROCLOR 1254, Method: PREINCUBATION): inactive; negative
- mutagenic call (Test System: AMES SALMONELLA TYPHIMURIUM, Strain/Indicator: TA1535, Metabolic Activation: HAMSTER, LIVER, S-9, AROCLOR 1254, Method: PREINCUBATION): inactive; negative
- mutagenic call [3]: inactive; negative
- mutagenic call (Test System: AMES SALMONELLA TYPHIMURIUM, Strain/Indicator: TA1535, Metabolic Activation: RAT, LIVER, S-9, AROCLOR 1254, Method: PREINCUBATION): inactive; negative
- mutagenic call (Test System: AMES SALMONELLA TYPHIMURIUM, Strain/Indicator: TA1537, Metabolic Activation: HAMSTER, LIVER, S-9, AROCLOR 1254, Method: PREINCUBATION): inactive; negative
- mutagenic call [4]: inactive; negative
- mutagenic call (Test System: AMES SALMONELLA TYPHIMURIUM, Strain/Indicator: TA1537, Metabolic Activation: RAT, LIVER, S-9, AROCLOR 1254, Method: PREINCUBATION): inactive; negative

Compound: c1cc2c3c(cccc3c1)C1NC21 (centres undefined)
- mutagenic call [5]: active; positive
- mutagenic call [6]: active; positive
- mutagenic call [7]: active; positive

Compound: CCCc1cc(=O)oc2c3c(c4c(c12)OC(C)(C)CC4)O[C@@H](C)[C@H](C)[C@@H]3O
- mutagenic call (Test System: Mouse lymphoma, Strain/Indicator: L5178Y (tk+/tk-), Metabolic Activation: None, Method: Suspension/plate): inactive; negative
- mutagenic call (Test System: Mouse lymphoma, Strain/Indicator: L5178Y (tk+/tk-), Metabolic Activation: Rat, Liver, S-9, Aroclor 1254, Method: Suspension/plate): inactive; negative

Compound: CC=C(C)C(=O)O[C@H]1[C@H](OC(C)=O)[C@]2(CO)[C@H](O)C[C@]3(C)C(=CC[C@@H]4[C@@]5(C)CC[C@@H](O[C@@H]6O[C@H](C(=O)O)[C@@H](O[C@@H]7O[C@H](CO)[C@@H](O)[C@H](O)[C@H]7O)[C@H](O)[C@H]6O[C@@H]6O[C@H](CO)[C@@H](O)[C@H](O)[C@H]6O)[C@](C)(CO)[C@@H]5CC[C@]43C)[C@@H]2CC1(C)C
- mutagenic call (Test System: AMES SALMONELLA TYPHIMURIUM, Strain/Indicator: TA97, Metabolic Activation: NONE, Method: STANDARD PLATE): inactive; negative
- mutagenic call (Test System: AMES SALMONELLA TYPHIMURIUM, Strain/Indicator: TA97, Metabolic Activation: RAT, LIVER, S-9, AROCLOR 1254, Method: STANDARD PLATE): inactive; negative
- mutagenic call [5]: inactive; negative
- mutagenic call [8]: inactive; negative
- mutagenic call [6]: inactive; negative
- mutagenic call [9]: inactive; negative
- mutagenic call [10]: inactive; negative
- mutagenic call (Test System: AMES SALMONELLA TYPHIMURIUM, Strain/Indicator: TA102, Metabolic Activation: RAT, LIVER, S-9, AROCLOR 1254, Method: STANDARD PLATE): inactive; negative

Compound: Nc1ccc2snc(Cl)c2c1
- mutagenic call [6]: active; positive

Compound: CCn1cc(C(=O)O)c(=O)c2cc3c(cc21)OCO3
- mutagenic call [10]: active; positive
- mutagenic call (Test System: AMES SALMONELLA TYPHIMURIUM, Strain/Indicator: TA2638, Metabolic Activation: NONE, Method: STANDARD PLATE): active; positive
- mutagenic call (Test System: E. COLI, Strain/Indicator: WP2 (PKM101), Metabolic Activation: NONE, Method: STANDARD PLATE): active; positive
- mutagenic call (Test System: E. COLI, Strain/Indicator: WP2 UVRA (PKM101), Metabolic Activation: NONE, Method: STANDARD PLATE): active; positive

Compound: Cc1cnc2cc(CO)c3c(nc(N)n3C)c2n1
- mutagenic call (Test System: AMES SALMONELLA TYPHIMURIUM, Strain/Indicator: TA98, Metabolic Activation: S-9): active; positive
- mutagenic call (Test System: AMES SALMONELLA TYPHIMURIUM, Strain/Indicator: TA98, Metabolic Activation: S-9, Method: PREINCUBATION): active; positive
- mutagenic call (Test System: AMES SALMONELLA TYPHIMURIUM, Strain/Indicator: TA100, Metabolic Activation: S-9, Method: PREINCUBATION): active; positive
- mutagenic call (Test System: AMES SALMONELLA TYPHIMURIUM, Strain/Indicator: YG1024, Metabolic Activation: S-9): active; positive
- mutagenic call (Test System: AMES SALMONELLA TYPHIMURIUM, Strain/Indicator: YG1024, Metabolic Activation: S-9, Method: PREINCUBATION): active; positive

Compound: [Cl][Ti]([Cl])[Cl]
- mutagenic call [1]: inactive; negative
- mutagenic call (Test System: AMES SALMONELLA TYPHIMURIUM, Strain/Indicator: TA98, Metabolic Activation: RAT LIVER S-9, PHENOBARBITAL AND BETA-NAPHTHOFLAVONE, Method: PREINCUBATION): inactive; negative
- mutagenic call [2]: inactive; negative
- mutagenic call (Test System: AMES SALMONELLA TYPHIMURIUM, Strain/Indicator: TA100, Metabolic Activation: RAT LIVER S-9, PHENOBARBITAL AND BETA-NAPHTHOFLAVONE, Method: PREINCUBATION): active; positive
- mutagenic call [3]: inactive; negative
- mutagenic call (Test System: AMES SALMONELLA TYPHIMURIUM, Strain/Indicator: TA1535, Metabolic Activation: RAT LIVER S-9, PHENOBARBITAL AND BETA-NAPHTHOFLAVONE, Method: PREINCUBATION): inactive; negative
- mutagenic call [4]: inactive; negative
- mutagenic call (Test System: AMES SALMONELLA TYPHIMURIUM, Strain/Indicator: TA1537, Metabolic Activation: RAT LIVER S-9, PHENOBARBITAL AND BETA-NAPHTHOFLAVONE, Method: PREINCUBATION): inactive; negative
- mutagenic call (Test System: AMES SALMONELLA TYPHIMURIUM, Strain/Indicator: TA1538, Metabolic Activation: NONE, Method: PREINCUBATION): inactive; negative
- mutagenic call (Test System: AMES SALMONELLA TYPHIMURIUM, Strain/Indicator: TA1538, Metabolic Activation: RAT LIVER S-9, PHENOBARBITAL AND BETA-NAPHTHOFLAVONE, Method: PREINCUBATION): inactive; negative
- mutagenic call (Test System: E.COLI, Strain/Indicator: WP2UVRA, Metabolic Activation: NONE, Method: PREINCUBATION): inactive; negative
- mutagenic call (Test System: E.COLI, Strain/Indicator: WP2UVRA, Metabolic Activation: RAT LIVER S-9, PHENOBARBITAL AND BETA-NAPHTHOFLAVONE, Method: PREINCUBATION): inactive; negative

Compound: Nc1cccc2c1C(=O)c1cccc(N)c1C2=O
- mutagenic call [5]: inactive; negative
- mutagenic call [8]: active; positive
- mutagenic call [6]: inactive; negative
- mutagenic call [9]: inactive; negative
- mutagenic call (Test System: AMES SALMONELLA TYPHIMURIUM, Strain/Indicator: TA1535, Metabolic Activation: NONE, Method: STANDARD PLATE): inactive; negative
- mutagenic call (Test System: AMES SALMONELLA TYPHIMURIUM, Strain/Indicator: TA1535, Metabolic Activation: RAT, LIVER, S-9, AROCLOR 1254, Method: STANDARD PLATE): inactive; negative
- mutagenic call [7]: inactive; negative
- mutagenic call (Test System: AMES SALMONELLA TYPHIMURIUM, Strain/Indicator: TA1538, Metabolic Activation: NONE, Method: STANDARD PLATE): inactive; negative
- mutagenic call (Test System: AMES SALMONELLA TYPHIMURIUM, Strain/Indicator: TA1538, Metabolic Activation: RAT, LIVER, S-9, AROCLOR 1254, Method: STANDARD PLATE): active; positive
